4 compounds from patent US7332476B2, “Pyridyl substituted ketolide antibiotics” (Novartis AG, priority 2003, dated 2008) can be followed below.

Data set [1] concerns Streptococcus pneumoniae Stpn_297-749. The experiment in a line: MIC, broth microdilution (NCCLS). The following applies: for MIC: Table 10, Strain ID N (Table 8): Streptococcus pneumoniae Stpn_297-749. The data set is classed as cell-based. Also noted: MIC, strain ID N: unit not given here. Summed up: (§1)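 NCCLS broth microdilution with 2-fold serial drug dilutions (methanol stocks diluted in water); inoculum 3×10^5–7×10^5 CFU/ml in CAMHB, with 2-5% lysed horse blood for S. pneumoniae. Incubation 18-24 h at 35° C., ambient air, except S. pneumoniae (5-10% CO2). MIC is lowest concentration preventing visible growth.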

Data set [2] in a line: In vivo pharmacokinetic study in rats, whole lung (IV and PO). The following applies: male, Sprague-Dawley, 5 mg/kg, rat; for half-life: IV, whole lung, read-out: t1/2, IV Lung (converted); for Kp: lung/plasma, iv, read-out: L/P ratio, IV. The method, then:
(§2) Animal Models. A total of 54 male Sprague-Dawley rats, weighing 200 grams in average, were evaluated for pharmacokinetic studies of representative pyridyl substituted ketolides. Rats were under overnight food restriction and received water ad libitum. Rats were acclimated for approximately 5 days before antibiotic administration.
(§3) Antibiotic Administration. Rats were given bolus administration through (IV) and oral (PO) routes. Representative pyridyl substituted ketolides and telithromycin, for comparison, were diluted in 0.85% saline to a concentration of 15.0 mg/ml, and the resulting pH was adjusted using 1N acetic acid until the compound was in solution. Approximately 200 microliters of the compound solution was administered to the rats. The target dose for IV and PO administration was 5 mg/kg and 15 mg/kg, respectively.
(§4) Sample Collection. Plasma and whole lung samples were collected from the rats. Plasma samples were obtained from blood samples by centrifugation at 3000 RPM for 10 min. Heparin was added in the plasma as an anticoagulant. Whole lung samples were homogenized in deionized water. Samples were stored at −80° C. A total of 9 time points were collected in triplicate at 0.083, 0.25, 0.5, 1, 2, 4, 6, 8, and 24 hrs. Ketolide concentrations in plasma and lung were determined by well-established non-GLP LC-MS-MS methods. PK parameters were estimated from the raw bioanalytical data using WinNolin software (Version 4.0, Pharsight Corporation, CA). […] All representative compounds were compared to telithromycin.

The test system of data set [3] is Streptococcus pneumoniae Stpn_Mef 5654. The experiment in a line: MIC, broth microdilution (NCCLS). It is filed as cell-based. Also noted: MIC, strain ID R: unit not given beside the values. The following applies: for MIC: Table 10, Strain ID P (Table 8): Streptococcus pneumoniae Stpn_Mef 5654, in µg/mL (unit assumed). Summed up: as §1
(In general: Broth dilution looks for growth in wells or tubes with falling amounts of substance.)

The subject of data set [4] is Haemophilus influenzae Hain_960730503-3. The experiment in a line: MIC, broth microdilution (NCCLS). It is filed as cell-based. The following applies: in µg/mL (unit assumed); for MIC: Table 10, Strain ID I (Table 8): Haemophilus influenzae Hain_960730503-3. Summed up:
(§5)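 MIC read visually as lowest drug concentration with no growth after 18-24 h at 35° C; ambient air for staphylococci and enterococci, 5-10% CO2 for H. influenzae. Inoculum 3×10^5–7×10^5 CFU/ml; CAMHB or Haemophilus Test Medium.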

In data set [5] the test system is Haemophilus influenzae Hain_953460299-3. The experiment in a line: MIC, broth microdilution (NCCLS). The following applies: in µg/mL (unit assumed); for MIC: Table 10, Strain ID K (Table 8): Haemophilus influenzae Hain_953460299-3. The data set is classed as cell-based. The essentials:
as §5

In data set [6] the test system is Haemophilus influenzae Hain_2762. The experiment in a line: MIC, broth microdilution (NCCLS). As to conditions: in µg/mL (unit assumed); for MIC: Table 10, Strain ID L (Table 8): Haemophilus influenzae Hain_2762. It is filed as cell-based. The essentials: as §5
The subject of data set [7] is Haemophilus influenzae Hain_960820544-3. The experiment in a line: MIC, broth microdilution (NCCLS). The data set is classed as cell-based. As to conditions: in µg/mL (unit assumed); for MIC: Table 10, Strain ID J (Table 8): Haemophilus influenzae Hain_960820544-3. The essentials:
as §5

For data set [8], the system named is Staphylococcus aureus Stau_33591. The experiment in a line: MIC, broth microdilution (NCCLS). It is filed as cell-based. The following applies: unit assumed; for MIC: Table 10, Strain ID B (Table 8): Staphylococcus aureus Stau_33591. The essentials:
as §5

In data set [9] the test system is Enterococcus faecalis Enfa_bc 11148-2. The experiment in a line: MIC, broth microdilution (NCCLS). It is filed as cell-based. The following applies: in µg/mL (unit assumed); for MIC: Table 10, Strain ID F (Table 8): Enterococcus faecalis Enfa_bc 11148-2. The essentials:
as §5

In data set [10] the test system is Streptococcus pneumoniae Stpn_49619. The experiment in a line: MIC, broth microdilution (NCCLS). It is filed as cell-based. The following applies: for MIC: Table 10, Strain ID M (Table 8): Streptococcus pneumoniae Stpn_49619. Also noted: MIC, strain ID M: unit not given beside the values. The essentials:
as §1

Data set [11] is described as follows: In vivo pharmacokinetic study in rats, plasma (IV and PO). Also noted: species or system Sprague-Dawley rats. The following applies: rat; for F, PO: PO = 15 mg/kg; for half-life / AUC / clearance / Vd: male, Sprague-Dawley; for half-life: 5 mg/kg, read-out: t1/2, IV Plasma (converted); for clearance / Vd: intravenous; for Vd: read-out: Vss. The method, then:
as §2, §3, §4

Data set [12] concerns Streptococcus pneumoniae Stpn_280-962. The experiment in a line: MIC, broth microdilution (NCCLS). It is filed as cell-based. Also noted: MIC, strain ID O: unit not given beside the values. As to conditions: for MIC: Table 10, Strain ID O (Table 8): Streptococcus pneumoniae Stpn_280-962. Summed up:
as §1

The test system of data set [13] is Streptococcus pyogenes Stpy_8668. The experiment in a line: MIC, broth microdilution (NCCLS). It is filed as cell-based. Also on record: MIC, strain ID G: unit not given beside the values. The following applies: for MIC: Table 10, Strain ID G (Table 8): Streptococcus pyogenes Stpy_8668. The essentials: as §1
Setting [14] is: plasma, IV, dose IV = 5 mg/kg (Compound XIV: IV = 15).

As usually defined, the AUC is concentration integrated over time.

Each structure is given as a SMILES string.

For the compound `CC[C@H]1OC(=O)[C@H](C)C(=O)[C@H](C)[C@@H](O[C@@H]2O[C@H](C)C[C@H](N(C)C)[C@H]2O)[C@](C)(OC)C[C@@H](C)C(=O)[C@H](C)[C@H]2N(CCCCn3cnc(-c4cccnc4)c3)C(=O)O[C@]12C` [Telithromycin, telithromycin, reference compound], the MIC result was “=0.05” in data set [1]; 0.2-0.78 in data set [3]; 3.13-6.25 in data set [4]; 3.13-6.25 in [5]; 0.78-1.56 in data set [6]; 3.13-6.25 in data set [7]. Moreover, the MIC in [8] is > 50 µg/mL; in data set [9], 0.4-0.78; in data set [10], “=0.05”; in data set [12] it was “=0.05”; in data set [13], “=0.05”. In addition, the “MIC, strain ID N” value in [1] (strain ID N, broth microdilution) is recorded as “=0.05”. Besides, the half-life in [2] was 1.3 h. Also, in data set [2], the Kp was determined as 16. Besides, the “MIC, strain ID R” value in data set [3] (strain ID R, broth microdilution) is “=0.1”. Moreover, in data set [4] (strain ID I, broth microdilution), the “MIC, strain ID I” value is 3.13-6.25. Moreover, the “MIC, strain ID K” value in [5] (strain ID K, broth microdilution) is recorded as 3.13-6.25. Moreover, the “MIC, strain ID L” value in data set [6] (strain ID L, broth microdilution) is given as 0.78-1.56. Moreover, in data set [7] (strain ID J, broth microdilution), the “MIC, strain ID J” value is 3.13-6.25. Moreover, the MIC, strain ID B in [8] (strain ID B, broth microdilution) was > 50 µg/mL. Also, the “MIC, strain ID F” value in data set [9] (strain ID F, broth microdilution) is on record as 0.4-0.78. Also, the “MIC, strain ID M” value in data set [10] (strain ID M, broth microdilution) is “=0.05”. Besides, the “AUC, IV” value in [11] (IV, dose IV = 5 mg/kg (Compound XIV: IV = 15)) was found to be 2500 ng·h/mL. The “t1/2, IV Plasma” value in data set [11] (IV, plasma) is 1.0 h. In data set [11], the “F, PO” value was found to be 11%. For the same compound, the “MIC, strain ID O” value in [12] (strain ID O, broth microdilution) is “=0.05”. Also, in [13] (strain ID G, broth microdilution), the “MIC, strain ID G” value is “=0.05”.
Turning to `CC[C@H]1OC(=O)[C@@](C)(F)C(=O)[C@H](C)[C@@H](OC2O[C@H](C)C[C@H](N(C)C)[C@H]2O)[C@@](C)(OC)C[C@@H](C)C(=O)[C@H](C)[C@H]2N(CCCCn3cnc(-c4ccc(C)nc4)c3)C(=O)O[C@]12CC` (stereo partly drawn) [XIV], the MIC result is reported as “=0.05” in data set [1]; 0.78 in data set [3]; 6.25 in data set [4]; 6.25 in data set [5]; 1.56 in data set [6]; 6.25 in data set [7]. Moreover, the MIC in data set [8] was > 50 µg/mL; in [9] it was 1.56; in [10] it was “=0.05”; in data set [12], “=0.05”; in data set [13] it was “=0.05”. Moreover, the half-life in data set [2] is 3.6 h; in [11] (IV, plasma), 2.3 h. For the same compound, the Kp in data set [2] is 83. The AUC in [11] (setting [14]) was 3300 ng·h/mL. Moreover, the clearance in data set [11] (plasma) came to 70 mL/min/kg. In data set [11] (plasma), the Vd turned out to be 13 L/kg. The “F, PO” value in data set [11] is recorded as 43%.
Regarding `C=C[C@]12OC(=O)N(CCCCn3cnc(-c4ccc(OC)nc4)c3)[C@@H]1[C@@H](C)C(=O)[C@H](C)C[C@](C)(OC)[C@H](OC1O[C@H](C)C[C@H](N(C)C)[C@H]1O)[C@@H](C)C(=O)[C@@H](C)C(=O)O[C@@H]2CC` (stereo partly drawn) [XVIII], the MIC entry in [1] is recorded as “=0.05”; in [3], 0.78; in data set [4], 6.25; in data set [5], 6.25; in [6] it was 1.56; in [7], 6.25. Moreover, the MIC in data set [8] was > 50 µg/mL; in [9] it was 0.78; in data set [10], “=0.05”; in [12] it was “=0.05”; in [13] it was “=0.05”. The half-life was 3.1 h in [2] and 1.7 h in data set [11] (IV, plasma). For the same compound, the Kp in data set [2] came to 110. Further, the AUC in [11] (setting [14]) amounted to 2600 ng·h/mL. This compound yielded a clearance in data set [11] (plasma) of 91 mL/min/kg. The Vd in [11] (plasma) was 11 L/kg. Besides, the “F, PO” value in [11] was found to be 51%.
`C=C[C@]12OC(=O)N(CCCCn3cnc(-c4ccc(C)nc4)c3)[C@@H]1[C@@H](C)C(=O)[C@H](C)C[C@](C)(OC)[C@H](OC1O[C@H](C)C[C@H](N(C)C)[C@H]1O)[C@@H](C)C(=O)[C@@H](C)C(=O)O[C@@H]2CC` (stereo partly drawn) [XVI]: the MIC entry is “=0.05” in [1]; 0.78 in [3]; 6.25 in data set [4]; 6.25 in data set [5]; 1.56 in data set [6]; 6.25 in [7]. Besides, the MIC was > 50 µg/mL in data set [8]; 0.78 in data set [9]; “=0.05” in data set [10]; “=0.05” in data set [12]; “=0.05” in data set [13]. In addition, the half-life is 3.4 h in data set [2] and 1.6 h in [11] (IV, plasma). Also, the Kp in data set [2] came to 80. In addition, the AUC in [11] (setting [14]) was 2100 ng·h/mL. The same compound returned a clearance in data set [11] (plasma) of 115 mL/min/kg. The Vd in data set [11] (plasma) was found to be 14 L/kg. The “F, PO” value in data set [11] was found to be 35%.
